Measurements published in PubChem BioAssay (NCI).
Several values for one entry are separate records, joined by “and”; a condition that tells them apart may be missing. Equal entries are not always repeated.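 Cells were grown in 96-well plates and exposed to each compound for 48 hours at five concentrations; endpoints were interpolated linearly between bracketing concentrations, or set to the highest concentration if not reached. Here, GI50 denotes the concentration required for 50% inhibition of growth. TGI: total growth inhibition.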

Key:
Assay in all cases: growth of human tumour cells (NCI), 48 h
HCT-116 colon = test system: HCT-116 colon
SNB-19 CNS = test system: SNB-19 CNS
NCI-H226 lung = test system: NCI-H226 lung
SN12C renal = test system: SN12C renal
SK-OV-3 ovarian = test system: SK-OV-3 ovarian
RPMI-8226 leukemia = test system: RPMI-8226 leukemia
TK-10 renal = test system: TK-10 renal
OVCAR-3 ovarian = test system: OVCAR-3 ovarian
SR leukemia = test system: SR leukemia
HT29 colon = test system: HT29 colon

SMILES | GI50 (HCT-116 colon) | TGI (HCT-116 colon) | GI50 (SNB-19 CNS) | TGI (SNB-19 CNS) | GI50 (NCI-H226 lung) | TGI (NCI-H226 lung) | GI50 (SN12C renal) | TGI (SN12C renal) | GI50 (SK-OV-3 ovarian) | TGI (SK-OV-3 ovarian) | GI50 (RPMI-8226 leukemia) | TGI (RPMI-8226 leukemia) | GI50 (TK-10 renal) | TGI (TK-10 renal) | GI50 (OVCAR-3 ovarian) | TGI (OVCAR-3 ovarian) | GI50 (SR leukemia) | TGI (SR leukemia) | GI50 (HT29 colon) | TGI (HT29 colon)
Cc1cc(Nc2nc(N[C@@H](C)c3ncc(F)cn3)ncc2Cl)n[nH]1 | 13.3 µM | > 100 µM | 51.7 µM | > 100 µM | 1.14 µM | 54.8 µM | 20.4 µM | > 100 µM | 22.6 µM | > 100 µM | > 62 µM | > 100 µM | 30 µM | > 100 µM | 59.1 µM | > 100 µM | 4.15 µM | > 100 µM | 27.8 µM | > 100 µM
N#CC(C(=O)/C(=N\NC(N)=O)C(C#N)c1ccccc1)c1ccccc1 (stereo unspecified) |  | > 100 µM |  | > 100 µM |  | > 100 µM |  | > 100 µM |  | > 100 µM |  | > 100 µM |  | > 100 µM |  | > 100 µM |  | > 100 µM |  | > 100 µM
C/C(=C(\c1ccc(OCCN2CCCCCC2)cc1)c1ccc(OC(=O)c2ccccc2)cc1)c1ccc(Cl)cc1 | 1.62 µM | 6.05 µM | 6.61 µM | 18.5 µM | 5.47 µM | 11.1 µM | 4.21 µM | 9.53 µM | 4.41 µM | 9.52 µM | 3.03 µM | 10.2 µM | 5.14 µM | 10.8 µM | 4.06 µM | 8.49 µM | 0.996 µM | 3.33 µM | 1.28 µM | 4.57 µM
CCOc1ccccc1N=Nc1c(-c2ccccc2)nn(C(=O)CC(=O)Nc2cccc(C)c2)c1-c1ccccc1 |  | > 100 µM |  | > 100 µM |  | > 100 µM |  | > 100 µM |  | > 100 µM |  | > 100 µM |  | > 100 µM |  | > 100 µM |  | > 100 µM |  | > 100 µM
COC(=O)C1C(=O)O[C@@H](c2cc(OC)c(OC)cc2OC)C1C(=O)OC (mixture of isomers) |  | > 100 µM |  | > 100 µM |  | > 100 µM |  | > 100 µM |  | > 100 µM |  | > 100 µM |  | > 100 µM |  | > 100 µM |  | > 100 µM |  | > 100 µM
CCc1nc2ccc(N=Nc3c(O)ccc4ccccc34)cc2[nH]1 |  | 30.8 µM |  | > 66 µM |  | 41.1 µM |  | 38.2 µM |  | > 62 µM |  | > 78 µM |  | 32.6 µM |  | 37.2 µM |  | 24.7 µM |  | 44.1 µM
O=C(c1ccc(Cl)cc1)c1ccc(OCCCOc2ccc(C(=O)c3ccc(Cl)cc3)cc2Cl)c(Cl)c1 |  | > 100 µM |  | > 100 µM |  | > 100 µM |  | > 100 µM |  | > 100 µM |  | > 100 µM |  | > 100 µM |  | > 100 µM |  | > 100 µM |  | > 100 µM
CC(=O)C1=C(O)C=C2Oc3c(C(=O)/C=C/c4cc(Cl)cc(Cl)c4)c(O)c(C)c(O)c3[C@]2(C)C1=O | 0.465 µM | 1.38 µM | 0.582 µM | 3.06 µM | 1.21 µM | 5.49 µM | 0.534 µM | 2.45 µM | 0.449 µM | 1.33 µM | 0.452 µM | 1.14 µM | 0.446 µM | 1.68 µM | 0.417 µM | 1.23 µM | 0.459 µM | 4.35 µM | 0.47 µM | 1.56 µM
COc1cc(C2c3cc4c(cc3C(OC(=O)C[n+]3ccccc3)C3COC(=O)C23)OCO4)cc(OC)c1OC (stereo unspecified) | < 0.0181 µM | > 100 µM | < 0.0265 µM | > 100 µM | < 0.01 µM | > 100 µM | < 0.0247 µM | > 100 µM | < 0.0207 µM | > 100 µM | < 0.0203 µM | > 100 µM | > 100 µM | > 100 µM | < 0.016 µM | < 0.0255 µM | < 0.016 µM | > 100 µM | < 0.01 µM | > 100 µM
COc1cc(C(=O)c2cnc(-c3cccc4[nH]ccc34)[nH]2)cc(OC)c1OC | 0.0673 µM and < 0.01 µM | > 100 µM | 0.0465 µM and < 0.01 µM | > 100 µM | 0.169 µM |  |  | > 100 µM | 0.0542 µM and < 0.01 µM | < 0.01 µM |  | 24.3 µM | < 0.01 µM | 66.6 µM | 0.0366 µM and < 0.01 µM |  | < 0.01 µM | > 100 µM | 0.0493 µM and < 0.01 µM | < 0.01 µM
NC1=NN(c2ccccc2)C(=O)C1C(=O)C(=O)Nc1ccc(Cl)c(Cl)c1 (stereo unspecified) |  | > 100 µM |  | > 100 µM |  | > 100 µM |  | > 100 µM |  | > 100 µM |  | > 100 µM |  | > 100 µM |  | > 100 µM |  | > 100 µM |  | > 100 µM
Clc1ccccc1-c1nnc2c(Cc3ccccc3)nc3ccccc3n12 | 3.79 µM | > 100 µM | 36.3 µM | > 100 µM | 6.91 µM | > 100 µM | > 100 µM | > 100 µM | 22.5 µM | > 100 µM | 5.64 µM | > 100 µM | 54 µM | > 100 µM | 22.8 µM | > 100 µM | 3.91 µM | > 100 µM | 8.71 µM | > 100 µM
COC(=O)c1oc2c(C(=O)/C=C/c3ccc(OC)cc3)c(OCCN(C)C)ccc2c1C | 4.64 µM | 19.7 µM | 10.9 µM | 23.5 µM | 13.1 µM | 27.8 µM | 5.31 µM | 20.4 µM | 5.14 µM | 17.8 µM | 3.83 µM | 20.5 µM | 9.79 µM | 23 µM | 7.19 µM | 21.3 µM | 2.37 µM | 7.38 µM | 3.72 µM | 9.83 µM
CCNC(=O)Oc1ccc(/C(=C(/C)Cc2ccc(OC)cc2)c2ccc(OCCN(CC)CC)cc2)cc1 | 1.57 µM | 3.11 µM | 2.57 µM | 6.16 µM | 2.99 µM | 12.6 µM | 1.93 µM | 3.82 µM | 2.84 µM | 13.3 µM | 1.99 µM | 4.5 µM | 2.03 µM | 6.05 µM | 1.69 µM | 3.34 µM | 1.76 µM | 5.96 µM | 2.02 µM | 3.96 µM
CCN(Cc1cccc(Cl)c1)c1ccc(CO)c(Cl)c1 | 0.105 µM | 10.3 µM | 13.8 µM | 28.6 µM | 0.0905 µM | 0.236 µM | 11.9 µM | 27.3 µM | 5.62 µM | 18.2 µM | 4.35 µM | 28.1 µM | 0.0588 µM | 0.321 µM | 0.835 µM | 5.29 µM | 16.9 µM | 39.9 µM | 3.61 µM | 14.6 µM
CCCCCCCCCCCCOC1C(CNC(=O)C2OC3OC(C)(C)OC3C2NC(=O)CN2CCN(c3ccc(OC)cc3)CC2)OC2OC(C)(C)OC21 (stereo unspecified) | 3.26 µM | 18.5 µM | 5.3 µM | 17 µM | 5.56 µM | 19.2 µM | 3.41 µM | 11.7 µM | 5.87 µM | 17.7 µM | 2.13 µM | 4.73 µM | 3.96 µM | 13.4 µM | 4.01 µM | 14.5 µM | 2.86 µM | 6.07 µM | 2.12 µM | 5.12 µM
Cc1nc2c(o1)C(=Nc1ccccc1)c1nc(C)oc1C2=Nc1ccccc1 |  | 37.6 µM |  | 42.5 µM |  | 53.6 µM |  | 34.8 µM |  | 40.4 µM |  | > 100 µM |  | > 100 µM |  | > 100 µM |  | > 100 µM |  | 45.5 µM
Cc1cc(Nc2cc(N3CCN(C)CC3)nc(/C=C/c3ccccc3)n2)n[nH]1 | 0.201 µM | > 10 µM | 1.49 µM | > 10 µM | 1.29 µM | > 9.46 µM | 0.62 µM | > 10 µM | 1.35 µM | > 10 µM | 1.69 µM | > 3.14 µM | 0.797 µM | > 5.11 µM | 1.2 µM | > 10 µM | 0.103 µM | 2.19 µM | 0.542 µM | > 6.77 µM
N#Cc1cnc(Nc2cc(NC[C@H]3CNCCO3)c(C(F)(F)F)cn2)cn1 | 23.3 µM | > 100 µM | 9.67 µM | > 100 µM | 22.4 µM | 85.3 µM | 17.7 µM | 83 µM | 3.62 µM | 38.9 µM | 15.7 µM | 56.3 µM | 3.66 µM | 36 µM | 13.3 µM | 48.3 µM | 0.64 µM | 24 µM | 25.7 µM | 92 µM
